Active and inactive are the calls of the source. The rule behind the calls is not given here.
Key:
[1] = molecular target: Dual specificity mitogen-activated protein kinase kinase 1 (Homo sapiens) (UniProt Q02750); assay: Binding affinity to MEK1 at 1 uM by high throughput binding assay relative to control
[2] = molecular target: RAC-alpha serine/threonine-protein kinase (Homo sapiens) (UniProt P31749); assay: Binding affinity to AKT1 at 1 uM by high throughput binding assay relative to control
[3] = molecular target: T1, Mast/stem cell growth factor receptor Kit (Homo sapiens, UniProt P10721); assay: Binding affinity to KIT at 1 uM by high throughput binding assay relative to control
T1 sequence (P10721 whole entry): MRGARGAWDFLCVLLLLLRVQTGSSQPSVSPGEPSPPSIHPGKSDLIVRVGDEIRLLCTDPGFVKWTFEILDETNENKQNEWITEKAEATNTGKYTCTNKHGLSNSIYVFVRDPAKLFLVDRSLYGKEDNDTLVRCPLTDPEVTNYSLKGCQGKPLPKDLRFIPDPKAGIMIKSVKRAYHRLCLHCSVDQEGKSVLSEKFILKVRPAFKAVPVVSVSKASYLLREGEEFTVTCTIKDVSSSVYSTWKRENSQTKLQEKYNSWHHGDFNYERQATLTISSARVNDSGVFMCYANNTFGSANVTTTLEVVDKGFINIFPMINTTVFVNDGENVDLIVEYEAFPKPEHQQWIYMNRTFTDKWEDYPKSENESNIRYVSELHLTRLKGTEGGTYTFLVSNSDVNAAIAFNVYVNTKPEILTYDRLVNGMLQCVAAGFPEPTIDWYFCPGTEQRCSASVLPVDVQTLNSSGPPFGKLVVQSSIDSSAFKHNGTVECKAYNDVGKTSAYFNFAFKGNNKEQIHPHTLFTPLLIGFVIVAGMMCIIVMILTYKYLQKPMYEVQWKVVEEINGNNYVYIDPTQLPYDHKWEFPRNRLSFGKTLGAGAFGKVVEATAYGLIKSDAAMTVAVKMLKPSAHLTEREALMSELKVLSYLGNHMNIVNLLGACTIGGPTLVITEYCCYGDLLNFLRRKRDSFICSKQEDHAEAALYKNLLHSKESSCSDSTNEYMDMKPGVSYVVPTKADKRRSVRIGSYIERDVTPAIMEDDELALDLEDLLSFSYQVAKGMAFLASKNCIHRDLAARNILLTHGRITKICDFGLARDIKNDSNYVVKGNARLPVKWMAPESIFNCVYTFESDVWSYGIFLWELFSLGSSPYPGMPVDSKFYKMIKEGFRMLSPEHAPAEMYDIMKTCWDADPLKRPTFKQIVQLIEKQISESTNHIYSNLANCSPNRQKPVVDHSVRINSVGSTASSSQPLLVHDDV

[4] = system: MCF7; assay: Induction of apoptosis in human MCF7 cells assessed as DNA strand breaks at 10 uM after 24 hrs by TUNEL assay; type: functional, cell-based
[5] = molecular target: Serine/threonine-protein kinase pim-1 (Homo sapiens) (UniProt P11309); assay: Binding affinity to PIM1 at 1 uM by high throughput binding assay relative to control
[6] = molecular target: 3-phosphoinositide-dependent protein kinase 1 (Homo sapiens) (UniProt O15530); assay: Binding affinity to PDPK1 at 1 uM by high throughput binding assay relative to control
[7] = molecular target: Cyclin-dependent kinase 19 (Homo sapiens) (UniProt Q9BWU1); assay: Binding affinity to CDK11 at 1 uM by high throughput binding assay relative to control
[8] = molecular target: Serine/threonine-protein kinase PAK 1 (Homo sapiens) (UniProt Q13153); assay: Binding affinity to PAK1 at 1 uM by high throughput binding assay relative to control
[9] = system: SK-BR-3; assay: Cytotoxicity against human SKBR3 cells after 48 hrs by MTT assay; type: functional, cell-based
[10] = molecular target: Focal adhesion kinase 1 (Homo sapiens) (UniProt Q05397); assay: Binding affinity to FAK at 1 uM by high throughput binding assay relative to control
Sequence of Focal adhesion kinase 1 (Homo sapiens) (Q05397 2-1052 limits assumed): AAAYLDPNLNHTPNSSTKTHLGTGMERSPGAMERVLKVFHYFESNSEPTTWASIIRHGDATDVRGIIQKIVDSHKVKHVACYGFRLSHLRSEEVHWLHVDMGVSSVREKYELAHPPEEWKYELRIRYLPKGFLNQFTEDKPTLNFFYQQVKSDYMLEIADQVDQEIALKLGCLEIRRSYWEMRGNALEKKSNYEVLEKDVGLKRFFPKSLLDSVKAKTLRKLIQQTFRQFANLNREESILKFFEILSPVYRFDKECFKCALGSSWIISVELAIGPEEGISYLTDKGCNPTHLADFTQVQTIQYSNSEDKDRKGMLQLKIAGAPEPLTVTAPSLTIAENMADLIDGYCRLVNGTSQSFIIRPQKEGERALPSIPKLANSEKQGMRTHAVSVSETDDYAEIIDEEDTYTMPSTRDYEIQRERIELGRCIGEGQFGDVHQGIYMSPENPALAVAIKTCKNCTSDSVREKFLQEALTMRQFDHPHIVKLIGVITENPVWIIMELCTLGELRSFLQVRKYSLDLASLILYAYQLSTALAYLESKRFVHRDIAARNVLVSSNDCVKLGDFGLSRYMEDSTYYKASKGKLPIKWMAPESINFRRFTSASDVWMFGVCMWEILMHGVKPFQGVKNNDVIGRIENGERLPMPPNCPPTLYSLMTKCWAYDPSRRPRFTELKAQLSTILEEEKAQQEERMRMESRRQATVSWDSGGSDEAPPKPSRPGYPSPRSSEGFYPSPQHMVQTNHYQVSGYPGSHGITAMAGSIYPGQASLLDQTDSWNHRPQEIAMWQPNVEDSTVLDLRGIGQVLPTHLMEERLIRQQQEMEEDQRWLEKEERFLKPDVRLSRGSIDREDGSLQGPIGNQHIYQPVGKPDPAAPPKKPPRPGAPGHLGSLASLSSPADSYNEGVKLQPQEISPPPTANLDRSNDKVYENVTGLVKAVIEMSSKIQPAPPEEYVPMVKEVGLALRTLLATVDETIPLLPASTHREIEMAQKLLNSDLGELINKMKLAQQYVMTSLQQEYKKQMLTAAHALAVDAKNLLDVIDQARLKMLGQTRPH

[11] = molecular target: Fibroblast growth factor receptor 2 (Homo sapiens) (UniProt P21802); assay: Binding affinity to FGFR2 at 1 uM by high throughput binding assay relative to control
[12] = molecular target: cAMP-dependent protein kinase catalytic subunit alpha (Homo sapiens) (UniProt P17612); assay: Binding affinity to PKACalpha at 1 uM by high throughput binding assay relative to control
[13] = molecular target: Aurora kinase A (Homo sapiens) (UniProt O14965); assay: Binding affinity to AURKA at 1 uM by high throughput binding assay relative to control
[14] = system: MCF7; assay: Cytotoxicity against human MCF7 cells assessed as growth inhibition at 0.1 to 50 uM after 48 hrs by MTT assay; type: functional
[15] = system: HUVEC; assay: Antiangiogenic activity in HUVEC assessed as inhibition of wound-induced cell migration after 16 hrs; type: functional, cell-based; settings: Homo sapiens
[16] = molecular target: Glycogen synthase kinase-3 beta (Homo sapiens) (UniProt P49841); assay: Binding affinity to GSK3beta at 1 uM by high throughput binding assay relative to control
[17] = molecular target: Dual specificity mitogen-activated protein kinase kinase 2 (Homo sapiens) (UniProt P36507); assay: Binding affinity to MEK2 at 1 uM by high throughput binding assay relative to control
[18] = molecular target: Tyrosine-protein kinase JAK2 (Homo sapiens) (UniProt O60674); assay: Binding affinity to JAK2 at 1 uM by high throughput binding assay relative to control
[19] = molecular target: T2, High affinity nerve growth factor receptor (Homo sapiens, UniProt P04629); assay: Inhibition of TRKA assessed as [gamma33P]ATP incorporation into substrate
[20] = molecular target: Epidermal growth factor receptor (Homo sapiens) (UniProt P00533); assay: Binding affinity to EGFR at 1 uM by high throughput binding assay relative to control
[21] = system: MCF7; assay: Induction of apoptosis in human MCF7 cells assessed as nuclear fragmentation at 10 uM after 24 hrs by DAPI staining; type: functional, cell-based
[22] = molecular target: Rho-associated protein kinase 2 (Homo sapiens) (UniProt O75116); assay: Binding affinity to ROCK2 at 1 uM by high throughput binding assay relative to control
[23] = molecular target: Tyrosine-protein kinase ABL1 (Homo sapiens) (UniProt P00519); assay: Binding affinity to ABL1 at 1 uM by high throughput binding assay relative to control
[24] = molecular target: Serine/threonine-protein kinase PLK3 (Homo sapiens) (UniProt Q9H4B4); assay: Binding affinity to PLK3 at 1 uM by high throughput binding assay relative to control
[25] = molecular target: T1, Mast/stem cell growth factor receptor Kit; assay: Inhibition of KIT by radiometric kinase assay
[26] = system: MCF7; assay: Induction of apoptosis in human MCF7 cells assessed as increase in Bax expression at 10 uM after 24 hrs by immunofluorescence staining method; type: functional, cell-based
[27] = molecular target: T2, High affinity nerve growth factor receptor; settings: MCF7, 0.1 to 10 uM
Target sequence in this assay (P04629 33-796 limits assumed): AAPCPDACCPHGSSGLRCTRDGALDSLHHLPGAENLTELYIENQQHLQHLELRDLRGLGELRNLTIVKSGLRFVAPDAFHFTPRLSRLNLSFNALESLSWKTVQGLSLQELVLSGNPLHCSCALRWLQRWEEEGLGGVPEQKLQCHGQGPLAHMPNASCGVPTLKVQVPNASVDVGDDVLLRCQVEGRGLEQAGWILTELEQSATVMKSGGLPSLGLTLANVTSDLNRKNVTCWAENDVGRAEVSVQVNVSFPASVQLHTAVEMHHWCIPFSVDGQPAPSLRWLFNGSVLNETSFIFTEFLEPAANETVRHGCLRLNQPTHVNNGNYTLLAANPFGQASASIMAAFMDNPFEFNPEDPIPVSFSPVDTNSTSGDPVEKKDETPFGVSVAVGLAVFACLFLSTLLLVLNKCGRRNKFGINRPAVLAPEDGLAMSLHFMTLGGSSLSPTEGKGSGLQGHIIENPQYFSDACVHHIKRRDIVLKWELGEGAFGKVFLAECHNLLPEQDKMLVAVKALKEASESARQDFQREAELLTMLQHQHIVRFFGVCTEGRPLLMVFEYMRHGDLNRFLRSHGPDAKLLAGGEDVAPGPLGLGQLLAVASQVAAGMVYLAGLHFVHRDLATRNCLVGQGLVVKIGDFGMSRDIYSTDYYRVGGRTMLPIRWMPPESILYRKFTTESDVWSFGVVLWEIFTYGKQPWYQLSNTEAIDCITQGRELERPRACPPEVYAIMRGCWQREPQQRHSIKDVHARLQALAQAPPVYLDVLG
Description: Inhibition of TRKA phosphorylation in human MCF7 cells at 0.1 to 10 uM by Western blot analysis

[28] = molecular target: Serine/threonine-protein kinase PLK1 (Homo sapiens) (UniProt P53350); assay: Binding affinity to PLK1 at 1 uM by high throughput binding assay relative to control
Sequence of Serine/threonine-protein kinase PLK1 (Homo sapiens) (P53350 whole entry): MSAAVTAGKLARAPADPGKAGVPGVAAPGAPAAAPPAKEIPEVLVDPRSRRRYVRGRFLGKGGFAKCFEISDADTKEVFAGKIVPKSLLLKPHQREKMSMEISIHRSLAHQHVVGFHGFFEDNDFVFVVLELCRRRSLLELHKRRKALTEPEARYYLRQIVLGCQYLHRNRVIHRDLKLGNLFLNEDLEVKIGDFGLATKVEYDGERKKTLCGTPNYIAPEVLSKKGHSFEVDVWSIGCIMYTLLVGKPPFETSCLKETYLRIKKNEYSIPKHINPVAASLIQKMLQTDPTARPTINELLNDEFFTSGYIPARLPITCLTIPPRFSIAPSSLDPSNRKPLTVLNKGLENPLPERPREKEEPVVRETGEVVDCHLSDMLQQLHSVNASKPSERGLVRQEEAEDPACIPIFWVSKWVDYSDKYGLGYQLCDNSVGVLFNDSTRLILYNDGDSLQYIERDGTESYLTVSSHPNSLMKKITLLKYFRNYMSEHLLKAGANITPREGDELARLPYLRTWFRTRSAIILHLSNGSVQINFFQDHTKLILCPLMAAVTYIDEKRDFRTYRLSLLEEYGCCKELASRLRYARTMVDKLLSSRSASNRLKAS

[29] = molecular target: T2, High affinity nerve growth factor receptor; settings: MCF7, 0.1 to 10 uM; remark: listed apart in the source
Target sequence in this assay (P04629 33-796 limits assumed): as the sequence (P04629 33-796 limits assumed) above
Description: Inhibition of TRKA-induced AKT phosphorylation in human MCF7 cells at 0.1 to 10 uM by Western blot analysis

[30] = system: MCF7; assay: Induction of apoptosis in human MCF7 cells assessed as nuclear condensation at 10 uM after 24 hrs by DAPI staining; type: functional, cell-based
[31] = molecular target: Hypoxia-inducible factor 1-alpha (Homo sapiens) (UniProt Q16665); assay: Inhibition of HIF1alpha-mediated VEGF production in human MCF7 cells under hypoxic condition at 0.1 to 10 uM after 6 hrs; type: cell-based
Sequence of Hypoxia-inducible factor 1-alpha (Homo sapiens) (Q16665 whole entry, looked up): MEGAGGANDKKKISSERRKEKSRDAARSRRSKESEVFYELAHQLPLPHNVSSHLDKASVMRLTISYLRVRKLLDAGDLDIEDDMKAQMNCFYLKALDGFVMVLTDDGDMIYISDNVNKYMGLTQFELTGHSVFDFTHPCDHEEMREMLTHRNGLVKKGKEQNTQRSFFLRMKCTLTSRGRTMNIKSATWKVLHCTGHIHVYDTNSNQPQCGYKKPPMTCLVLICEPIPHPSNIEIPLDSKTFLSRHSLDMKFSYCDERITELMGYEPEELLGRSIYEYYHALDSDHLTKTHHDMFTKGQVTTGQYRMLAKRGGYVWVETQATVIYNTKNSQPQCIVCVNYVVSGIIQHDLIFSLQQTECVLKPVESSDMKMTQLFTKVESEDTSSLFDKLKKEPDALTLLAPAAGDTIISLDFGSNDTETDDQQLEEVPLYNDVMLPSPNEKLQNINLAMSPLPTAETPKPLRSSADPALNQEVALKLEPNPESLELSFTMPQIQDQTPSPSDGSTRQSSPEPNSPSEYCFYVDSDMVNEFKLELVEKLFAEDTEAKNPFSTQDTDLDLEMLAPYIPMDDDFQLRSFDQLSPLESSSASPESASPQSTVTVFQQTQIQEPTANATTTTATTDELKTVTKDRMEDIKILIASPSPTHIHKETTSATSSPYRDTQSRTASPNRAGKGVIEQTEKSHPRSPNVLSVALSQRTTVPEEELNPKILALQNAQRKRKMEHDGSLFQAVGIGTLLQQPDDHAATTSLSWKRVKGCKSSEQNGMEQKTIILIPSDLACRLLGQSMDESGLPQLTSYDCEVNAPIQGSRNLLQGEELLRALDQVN

[32] = system: MCF7; assay: Inhibition of hypoxia-induced HIF1alpha expression in human MCF7 cells after 6 hrs; type: functional, cell-based
[33] = molecular target: Mitogen-activated protein kinase 14 (Homo sapiens) (UniProt Q16539); assay: Binding affinity to P38alpha at 1 uM by high throughput binding assay relative to control
[34] = molecular target: Platelet-derived growth factor receptor alpha (Homo sapiens) (UniProt P16234); assay: Binding affinity to PDGFRalpha at 1 uM by high throughput binding assay relative to control
[35] = molecular target: BDNF/NT-3 growth factors receptor (Homo sapiens) (UniProt Q16620); assay: Binding affinity to TRKB at 1 uM by high throughput binding assay relative to control
[36] = system: MCF7; assay: cells; settings: Homo sapiens, MCF7, 48 h
Description: (§1) Cytotoxicity against human MCF7 cells after 48 hrs by MTT assay

[37] = molecular target: Mitogen-activated protein kinase 3 (Homo sapiens) (UniProt P27361); assay: Binding affinity to ERK1 at 1 uM by high throughput binding assay relative to control
[38] = system: MCF7; assay: Induction of apoptosis in human MCF7 cells assessed as increase in cytochrome C expression at 10 uM after 24 hrs by immunofluorescence staining method; type: functional, cell-based
[39] = molecular target: Phosphatidylinositol 4,5-bisphosphate 3-kinase catalytic subunit alpha isoform (Homo sapiens, UniProt P42336); assay: Binding affinity to PI3KCA at 1 uM by high throughput binding assay relative to control
[40] = system: MCF7; assay: Induction of apoptosis in human MCF7 cells assessed as decrease in Bcl-2 expression at 10 uM after 24 hrs by immunofluorescence staining method; type: functional, cell-based
[41] = system: HUVEC; assay: Antiangiogenic activity against HUVEC assessed as inhibition of VEGF-induced tube formation after 10 hrs by phase-contrast microscopic analysis; type: functional, cell-based; settings: Homo sapiens
[42] = molecular target: Hepatocyte growth factor receptor (Homo sapiens) (UniProt P08581); assay: Binding affinity to MET at 1 uM by high throughput binding assay relative to control
[43] = system: MCF7; assay: Induction of apoptosis in human MCF7 cells assessed as increase in cleaved caspase-3 expression at 10 uM after 24 hrs by immunofluorescence staining method; type: functional, cell-based
[44] = system: MCF7; settings: Homo sapiens
Description: as §1

[45] = molecular target: Aurora kinase B (Homo sapiens) (UniProt Q96GD4); assay: Binding affinity to AURKB at 1 uM by high throughput binding assay relative to control
Sequence of Aurora kinase B (Homo sapiens) (Q96GD4 whole entry): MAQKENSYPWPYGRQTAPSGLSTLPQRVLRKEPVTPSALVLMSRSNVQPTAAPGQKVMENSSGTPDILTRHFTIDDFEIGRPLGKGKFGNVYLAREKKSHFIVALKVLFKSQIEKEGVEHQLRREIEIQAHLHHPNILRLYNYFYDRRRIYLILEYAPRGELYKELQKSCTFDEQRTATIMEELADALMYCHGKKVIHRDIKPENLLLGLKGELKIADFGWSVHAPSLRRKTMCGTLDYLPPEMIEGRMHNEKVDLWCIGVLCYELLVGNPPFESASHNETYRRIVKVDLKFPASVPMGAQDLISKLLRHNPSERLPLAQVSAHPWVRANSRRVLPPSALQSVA

[46] = molecular target: Serine/threonine-protein kinase B-raf (Homo sapiens) (UniProt P15056); assay: Binding affinity to BRAF at 1 uM by high throughput binding assay relative to control
[47] = molecular target: RAC-beta serine/threonine-protein kinase (Homo sapiens) (UniProt P31751); assay: Binding affinity to AKT2 at 1 uM by high throughput binding assay relative to control

Sequence of Dual specificity mitogen-activated protein kinase kinase 1 (Homo sapiens) (Q02750 whole entry): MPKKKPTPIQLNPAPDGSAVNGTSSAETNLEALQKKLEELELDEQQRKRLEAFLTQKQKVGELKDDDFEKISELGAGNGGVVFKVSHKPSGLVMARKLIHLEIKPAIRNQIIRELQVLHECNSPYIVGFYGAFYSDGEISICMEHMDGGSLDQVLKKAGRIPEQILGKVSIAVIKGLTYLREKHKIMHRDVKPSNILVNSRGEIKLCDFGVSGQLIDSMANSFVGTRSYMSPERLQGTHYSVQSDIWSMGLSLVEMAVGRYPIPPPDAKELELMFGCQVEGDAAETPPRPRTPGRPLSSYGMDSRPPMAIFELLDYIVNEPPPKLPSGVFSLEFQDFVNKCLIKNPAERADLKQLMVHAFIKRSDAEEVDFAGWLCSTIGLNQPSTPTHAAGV

Nc1cc(NS(=O)(=O)c2cccc(C(F)(F)F)c2)cc(-c2cnc3[nH]cc(-c4ccncc4)c3c2)c1
Activity [1]: 100%
Activity [2]: 94%
Activity [3]: 3%
Activity [4]: Active
Activity [5]: 97%
Activity [6]: 90%
Activity [7]: 26%
Activity [8]: 79%
Activity [9]: Dose-dependent effect
Activity [10]: 88%
Activity [11]: 61%
Activity [12]: 88%
Activity [13]: 100%
growth inhibition (GI) [14]: 40%
inhibition [15]: Dose-dependent effect
Activity [16]: 81%
Activity [17]: 100%
Activity [18]: 34%
IC50 [19]: 0.00167 µM
Activity [20]: 100%
Activity [21]: Active
Activity [22]: 50%
Activity [23]: 81%
Activity [24]: 75%
IC50 [25]: 0.145 µM
Activity [26]: Active
inhibition [27]: Active
Activity [28]: 100%
inhibition [29]: Active
Activity [30]: Active
inhibition [31]: Active
inhibition [32]: Dose-dependent effect
Activity [33]: 100%
Activity [34]: 69%
Activity [35]: 1.2%
IC50 [36]: 4.2 µM
Activity [37]: 100%
Activity [38]: Active
Activity [39]: 64%
Activity [40]: Active
inhibition [41]: Dose-dependent effect
Activity [42]: 96%
Activity [43]: Active
Activity [44]: Dose-dependent effect
Activity [45]: 85%
Activity [46]: 100%
Activity [47]: 100%

Source: ChEMBL document CHEMBL2150859, “Design, synthesis, and evaluation of 3,5-disubstituted 7-azaindoles as Trk inhibitors with anticancer and antiangiogenic activities” (J Med Chem, 2012)
